Data taken from patent US20210030703A1, “USE OF CALORIC RESTRICTION MIMETICS FOR POTENTIATING CHEMO-IMMUNOTHERAPY FOR THE TREATMENT OF CANCERS” (INSERM (INSTITUT NATIONAL DE LA SANTÉ ET DE LA RECHERCHE …, priority 2018, published 2021).

How the values were obtained:
[1] = test system: MCA205 fibrosarcoma; assay: Subcutaneous MCA205 fibrosarcoma: tumor growth, cure and survival under chemo-immunotherapy; type: in vivo, C57B1/6 mice; conditions: for Complete responses leading to tumor eradication: endpoint 50 days after chemotherapy; for Efficacy of MTX + ICIs (anti-PD-1 plus anti-CTLA-4) chemo-immunotherapy when the CRM is added: figure legends FIG. 2, 3, 4, 6
Method: Mouse strain and housing. Six- to 8-week-old wild-type female C57B1/6 mice were obtained from Envigo RMS SARL (Gannat, France). Animals were maintained in specific pathogen-free conditions in a temperature-controlled environment with 12 h light, 12 h dark cycles and received food and water ad libitum (unless precised otherwise). Animal experiments were in compliance with the EU Directive 63/2010 and approved by the Ethical Committee of the Cordeliers Research Center (Paris, France). All mouse experiments were randomized and blinded, and sample sizes were calculated to detect a statistically significant effect.
In vivo experimentations. Tumor engraftment was performed through subcutaneous injection of 3×10^5 MCA205 fibrosarcoma tumor cells (in 100 μl PBS) in the right flank of the mice. Tumor volume was monitored using a digital caliper and calculated according to the formula: volume=length×width×height/8×4/3 pi. When tumor reached 20 mm^3 on average, mice underwent fasting (48 hours without food but ad libitum access to water) or were given caloric restriction mimetics (CRMs) such as aspirin (Asp; 10 mg/kg i.p. in 200 μl phosphate buffered saline [PBS] five times per week), hydroxycitrate (HC; 5 mg/ml in drinking water daily) or spermidine (Spd; 50 mg/kg i.p. in 200 μl Earle's balanced salt solution three times per week), or were treated with mitoxantrone (MTX; 5.17 mg/kg i.p. in 200 μl PBS), or with the immune checkpoint inhibitors (ICIs) anti-PD-1 (10 mg/kg i.p. in 200 μl PBS) and/or anti-CTLA-4 (5 mg/kg i.p. in 200 μl PBS). Tumor size was carefully monitored up to 50 days post-MTX. Antitumor immunity induced by the treatment in cured mice was challenged by subcutaneously re-engrafting the same tumor (3×10^5 syngeneic MCA205 fibrosarcoma cells) in one flank while an antigenically unrelated cancer (3×10^5 syngeneic TC1 lung carcinoma cells) was implanted into the contralateral flank.
Statistical analyses. For tumor size comparison, Student unpaired t test or one-way ANOVA (Holm-Sidak) were performed. All statistical analyses were performed using GraphPad Prism version 6 for Windows (GraphPad Software, La Jolla, Calif., USA). Differences were considered significant when p value<0.05.

[2] = test system: immune infiltrate of MCA205 tumors; assay: Immunophenotyping of the tumor immune infiltrate by flow cytometry; type: in vivo, C57B1/6 mice; conditions: for Density of CD45+ leukocytes in the tumor: day 11 post-chemotherapy
Method: 3 or 11 days post-chemotherapy (d3 or d11), mice were euthanized and the tumors were withdrawn and placed in gentleMACS C tubes (ref 130-096-334 from Miltenyi BiotecTM) previously filled with 1 ml of DMEM or RPMI medium, and immediately put on ice. […] Then, cells were stained with a live dead dye (ref L34959 from ThermoFisher ScientificTM) and an FCblock receptor targeting antibody. For the surface stainings, several anti-mouse fluorochrome-coupled antibodies were employed, that were for 1) myeloid cells “staining 1”: anti-CD45 APC-Fire750 (clone 30E-11, ref 130154 BiolegendTM), anti-Ly-6G PE (clone 1A8, ref 551461 BDTM), anti-Ly-6C FITC (clone AL-21, ref 553104, BDTM), anti-CD11b V450 (clone M1/70, ref 560455 BDTM), anti-CD11c PE-Cy7 (clone HL3, ref 558470 BDTM), anti-CD80 PerCP-Cy5.5 (16-10A1, ref 104722 BiolegendTM), and anti-MHC-II APC (clone M5/114.15.2, ref 107614 BiolegendTM) 2) T-cells “staining 2”: anti-CD3 APC (clone 17A2, ref 17-0032-82 eBioscienceTM), anti-CD8 PE (clone 53-6.7, ref 553032 BDTM), anti-CD4 PerCP-Cy5.5 (clone RM4-5, ref 45-0042-82 eBioscienceTM), anti-CD25 PE-Cy7 (clone PC61.5, ref 25-0251-82 InvitrogenTM), anti-ICOS BV421 (clone 7E.17G9, ref 564070 BDTM) and anti-PD-1 APC-Fire750 (clone 29F.1Al2, ref 135240 BiolegendTM) 3) PD-L1 expressing-cells “staining 4”: anti-CD45 AlexaFluor647 (clone 30E-11, ref 103-124 BiolegendTM), anti-PD-L1 BV421 (clone MIHS, ref 564716 BDTM) and anti-PD-L2 PE-Dazzle594 (clone TY25, ref 107215 BiolegendTM) 4) NKT cells “staining 5”: anti-CD3 FITC (clone 17A2, ref 11-00-32-82 eBioscienceTM) and anti-NK1.1 PerCP-Cy5.5 (clone PK136, ref 551114 BDTM). After the fixation and permeabilization of the cells (thanks to the Cytofix/Cytoperm kit, ref 554714 BDTM for stainings 1, 3, 4 and 5; and with the Foxp3/Transcription Factor kit, ref 00-5523-00 eBioscienceTM for staining 2), intracellular stainings were performed using for “staining 2”: anti-FoxP3 FITC (clone FJK-16s, ref 11-5773-82 eBioscienceTM) and for “staining 3”: anti-IFNg APC (clone XMG1.2, ref 505-810 BiolegendTM), anti-TNFα APC-Cy7 (clone MP6-XT22, ref 506344 BiolegendTM) and anti-IL-2 PE-Dazzle 594 (clone JES6-5H4, ref 503-840 BiolegendTM). Finally, cells were resuspended in FACS buffer and analyzed on a flow cytometer BD LSR II.

[3] = HC + MTX chemotherapy + immunotherapy (anti-PD-1 plus anti-CTLA-4)
[4] = day 11 post-MTX, data not shown

## O=C1c2c(O)ccc(O)c2C(=O)c2c(NCCNCCO)ccc(NCCNCCO)c21 [MTX, mitoxantrone]
[1]; MTX plus immunotherapy (antibodies blocking CTLA-4 or PD-1)
  Complete responses leading to tumor eradication: either not seen at all or rare
[1]; MTX plus isotypes
  Complete responses leading to tumor eradication: either not seen at all or rare
[1]; MTX pretreatment, then CTLA-4/PD-1-blocking antibodies from day 8 post-chemotherapy (FIG. 6)
  Complete cure: 3 out of 10
[2]; MTX-treated cancers
  Density of CD45+ leukocytes in the tumor: higher density

## O=C(O)CC(O)(C(=O)O)C(O)C(=O)O (stereo not drawn) [HC, hydroxycitrate]
[1]; [3]
  Complete responses at day 30: all animals of the group
  Stable response: 7 out of 8
[1]; HC in drinking water + MTX chemotherapy + immunotherapy, versus all other groups
  Reduction of tumor growth: more efficient in reducing tumor growth than all other groups
[1]; HC+MTX versus MTX alone, data not shown
  Reduction of tumor growth and prolongation of survival: more successful in reducing tumor growth and in prolonging survival than MTX alone
[1]; MTX plus HC
  Complete responses leading to tumor eradication: either not seen at all or rare
[1]; MTX pre-treatment associated with the CRM, then CTLA-4/PD-1-blocking antibodies (FIG. 6)
  Tumor-free mice: 7 out of 10
[1]
  Efficacy of MTX + ICIs (anti-PD-1 plus anti-CTLA-4) chemo-immunotherapy when the CRM is added: further enhanced
[1]; listed as Hydroxycitrate
  Efficacy of MTX + ICIs (anti-PD-1 plus anti-CTLA-4) chemo-immunotherapy when the CRM is added: enhances tumor growth control
[1]; pretreated with the CRM alone (without MTX), data not shown
  Response to CTLA-4/PD-1-blockade: did not respond
[2]; combined with MTX, data not shown
  Increase in the density of total CD3+ and CD8+ T cell infiltrate: neither HC nor spermidine
[2]; day 3 post-chemotherapy (MTX), data not shown
  Myeloid infiltrate: no major increments
[2]; [4]
  Granulocyte infiltration (Ly6C+Ly6Ghi): increase
  Monocytic dendritic cell subpopulation with activation markers (Ly6G-Ly6ChiCD11b+CD11c+CD80+MHC-IIhi): increase
[2]; MTX-treated animals that received HC
  Density of CD45+ leukocytes in the tumor: more so
